The record followed here is US8653104B2, “PTEN inhibitor or Maxi-K channels opener” (Otsuka Pharmaceuticals Co., Ltd., priority 2003, dated 2014).

For one test, the target named is T1, Maxi-K channels (Homo sapiens, UniProt Q12791).
T1 construct: endogenous in cells; host or cells: SK-N-SH (KCLB 30011) human neuroblastoma cells
In words: Whole-cell K+ current recording (patch clamp) in SK-N-SH cells. The test is classed as cell-based. As to the method: (§1) Cell cultures: SK-N-SH (KCLB 30011, human brain neuroblastoma) cells were cultured in Eagle's minimum essential medium (MEM) with 2 mM L-glutamine and 1.0 mM sodium pyruvate supplemented with 10% heat-inactivated fetal bovine serum. Cells were grown to confluence at 37° C. in 5% CO2 and used for experiments at no greater than passage 20.
Recording of the whole-cell K^+ current: The experiments were performed in a small bath (0.5 ml) mounted on the stage of an inverted microscope (Nikon model TE300, Tokyo, Japan) perfused continuously at a flow rate of 1 ml/min. Using the whole-cell configuration of the patch clamp technique, the K^+ currents were recorded at room temperature (20˜22° C.) with an Axopatch-200B patch clamp amplifier (Axon Instruments, Foster City, Calif.). Currents were sampled at 1 to 10 kHz after anti-alias filtering at 0.5 to 5 kHz. Data acquisition and command potentials were controlled by pClamp 6.0.3 software (Axon Instruments, Foster City, Calif.). To ensure the voltage clamp quality, electrode resistance was kept below 3 MΩ. Junction potentials were zeroed with the electrode in the standard bath solution. Gigaohm seal formation was achieved by suction and, after establishing the whole cell configuration, the capacitive transients elicited by symmetrical 10 mV voltage clamp steps from −80 mV were recorded at 50 kHz for calculation of cell capacitance. The normal bath solution for the whole-cell recordings was: NaCl 130 mM, KCl 5 mM, MgCl2 1.2 mM, CaCl2 1.8 mM, HEPES 10 mM, glucose 5.2 mM and the pH was adjusted to 7.4 with NaOH. Pipettes were filled with KCl 140 mM, MgCl2 0.5 mM, CaCl2 0.1 mM, ethylenebis(oxonitrilo) tetra-acetic acid (EGTA) 0.09 mM, HEPES 10 mM, glucose 10 mM and the pH was adjusted to 7.4 with KOH.
After establishment of whole-cell recordings and collecting control recordings for approximately 5 minutes until the current elicited by depolarization stabilized, cilostazol was applied to the bath. In the experiments, using glibenclamide or iberiotoxin, cilostazol was applied to the bath about 20 minutes after administering glibenclamide or iberiotoxin.
(In general: Patch clamp records ionic current or voltage across a cell membrane.)

A further test has as its system PTEN. In words: Suppression of TNF-α-stimulated increase in PTEN phosphorylation level, Western blot in SK-N-SH cells. The test is classed as cell-based, human. The following applies: cilostazol 1, 10 and 100 μM given 3 hours before TNF-α (50 ng/ml, one hour). The protocol:
as §1
Preparation of TNF-α solution: TNF-α (Upstate Biotechnology, Inc., Lake Placid, N.Y.) was dissolved in the phosphate buffered saline as a 10 μg/ml stock solution.
Western blot analysis: The confluent cells received MEM medium with 1% FBS plus cilostazol 3 hours prior to stimulation with TNF-α and then were exposed to TNF-α for one hour.
The cells were lysed in lysis buffer containing 50 mM Tris-Cl (pH 8.0), 150 mM NaCl, 0.02% sodium azide, 100 μg/ml phenylmethylsulfonyl fluoride, 1 μg/ml aprotinin and 1% Triton X-100. […] The signals of the bands were quantified using a GS-710 Calibrated imaging Densitomerter (Bio-Rad Laboratories, Hercules, Calif.). The results were expressed as a relative density. […]
Statistical analysis: The results are expressed as means±SEM. Statistical differences between groups were determined by Student's t-test. p<0.05 was considered to be significant.
For orientation: In western blotting, separated proteins are transferred to a membrane and probed.

T1 sequence (Q12791 whole entry): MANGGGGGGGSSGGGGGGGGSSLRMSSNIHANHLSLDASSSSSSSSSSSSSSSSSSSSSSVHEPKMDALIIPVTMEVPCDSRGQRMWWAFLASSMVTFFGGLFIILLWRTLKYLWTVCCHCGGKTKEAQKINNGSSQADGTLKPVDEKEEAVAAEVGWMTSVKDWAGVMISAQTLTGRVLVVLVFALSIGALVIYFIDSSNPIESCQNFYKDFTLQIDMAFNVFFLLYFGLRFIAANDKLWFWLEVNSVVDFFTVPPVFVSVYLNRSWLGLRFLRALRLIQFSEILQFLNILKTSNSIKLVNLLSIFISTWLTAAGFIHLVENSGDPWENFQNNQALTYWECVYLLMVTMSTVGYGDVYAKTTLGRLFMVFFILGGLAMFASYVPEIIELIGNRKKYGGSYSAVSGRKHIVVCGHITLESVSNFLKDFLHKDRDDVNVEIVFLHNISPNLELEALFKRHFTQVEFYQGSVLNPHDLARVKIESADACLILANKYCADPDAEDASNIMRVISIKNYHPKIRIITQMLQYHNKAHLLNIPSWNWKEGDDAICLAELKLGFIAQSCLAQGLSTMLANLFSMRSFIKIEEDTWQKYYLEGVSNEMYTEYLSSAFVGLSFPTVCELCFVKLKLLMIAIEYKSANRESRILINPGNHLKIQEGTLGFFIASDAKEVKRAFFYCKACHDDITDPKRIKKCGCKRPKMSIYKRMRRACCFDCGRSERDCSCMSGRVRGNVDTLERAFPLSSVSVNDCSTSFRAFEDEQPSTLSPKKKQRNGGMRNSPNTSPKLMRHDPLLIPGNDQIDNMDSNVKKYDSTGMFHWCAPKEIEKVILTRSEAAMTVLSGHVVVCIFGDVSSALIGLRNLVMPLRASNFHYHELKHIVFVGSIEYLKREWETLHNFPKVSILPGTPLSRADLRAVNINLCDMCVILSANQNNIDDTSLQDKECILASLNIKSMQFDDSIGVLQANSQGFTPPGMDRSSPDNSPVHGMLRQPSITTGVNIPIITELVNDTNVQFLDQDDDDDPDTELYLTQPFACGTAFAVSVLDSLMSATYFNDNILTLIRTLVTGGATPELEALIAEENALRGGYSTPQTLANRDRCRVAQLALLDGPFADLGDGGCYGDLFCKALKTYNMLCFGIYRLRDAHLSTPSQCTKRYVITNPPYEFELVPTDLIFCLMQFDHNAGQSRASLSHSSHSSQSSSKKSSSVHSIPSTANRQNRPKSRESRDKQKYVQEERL

On to `O=C1CCc2cc(OCCCCc3nnnn3C3CCCCC3)ccc2N1` [cilostazol, 6-[4-(1-cyclohexyl-1H-tetrazol-5-yl)butoxy]-3,4-dihydro-carbostyril], for which the “Maxi-K channel-mediated currents in co-existence of glibenclamide” value at Maxi-K channels (cilostazol applied about 20 minutes after glibenclamide) is given as “increase in maxi-K channel-medicated currents was given”. In addition, at Maxi-K channels (cilostazol applied to the bath alone), the “whole-cell calcium activated K+ current” value was “significantly increased”. The “K+ current when added together with iberiotoxin” value at Maxi-K channels (cilostazol together with iberiotoxin, compared with iberiotoxin alone) is “increase of the current was rather less than iberiotoxin alone”. For the same molecule, the “TNF-α-stimulated increased PTEN phosphorylation level” value in the test with PTEN is recorded as “concentration-dependently suppressed”.
As for `COc1ccc(Cl)cc1C(=O)NCCc1ccc(S(=O)(=O)NC(=O)NC2CCCCC2)cc1` [glibenclamide, 5-chloro-N-[2-[4-[[[(cyclohexyl-amino)carbonyl]amino]sulfonyl]phenyl]ethyl]-2-methoxy-benzamide], at Maxi-K channels (glibenclamide 10 μM added to the bath), the “block of the cilostazol-increased K+ current” value is “not”. For the same molecule, on Maxi-K channels (glibenclamide alone), the “Maxi-K channel-mediated currents, blocker alone” value is “could not increase”.
As for iberiotoxin, the “block of the cilostazol-increased K+ current” value on Maxi-K channels (iberiotoxin 100 nM added to the bath) is “reversibly blocked”.
